Reference: US20220047606A1, “TREATMENT METHOD WITH IAP INHIBITOR” (Ascentage Pharma (Suzhou) Co., Ltd., priority 2019, published 2022)

Legend:
[1] = Phase I dose-escalation study (NCT03585322) in chronic hepatitis B patients: pharmacokinetics; assay type: in vivo, human
Procedure: (§1) Methods: This study (NCT number: NCT03585322) is a multi-center, single-agent, open-label, Phase I dose-escalation study. Chronic hepatitis B (CHB) patients without receiving anti-HBV treatment within 6 months before screening were recruited and administrated with Compound (I) weekly via intravenous infusion (IV) in 4 escalated dosage (7 mg, 12 mg, 20 mg and 30 mg) for 4 weeks followed with 12 weeks follow up. The primary objective of this study is to assess the safety, with secondary outcome measures focused on pharmacokinetics (PK) and Pharmacodynamics (PD) of Compound (I) as monotherapy in CHB patients.

[2] = system: IAPs (inhibitor of apoptosis proteins); assay: Preclinical studies: IAP inhibition in vivo and in vitro
chronic HBV infections = assay: Preclinical studies: clearance of chronic HBV infection in different models
[3] = Phase I dose-escalation study (NCT03585322) in chronic hepatitis B patients: other findings (Fibro test score, ALT normalization); assay type: in vivo, human; details: for Fibro Test Score Changes from baseline to end of follow-up, Mean(SD): 12 weeks follow up
Procedure: as §1

hepatitis B virus (HBV) = assay: Phase I dose-escalation study (NCT03585322) in chronic hepatitis B patients: pharmacodynamics (HBsAg, HBV DNA); assay type: in vivo, human
Procedure: as §1

[4] = Phase I dose-escalation study (NCT03585322) in chronic hepatitis B patients: safety; assay type: in vivo, human
Procedure: as §1

[5] = 7 mg weekly IV for 4 weeks, n = 3 CHB patients
[6] = 12 mg weekly IV for 4 weeks, n = 9 CHB patients
[7] = 20 mg weekly IV for 4 weeks, N = 6 CHB patients
[8] = 30 mg weekly IV for 4 weeks, N = 6 CHB patients

Question: Which results are given for `CN[C@@H](C)C(=O)N[C@H]1CN(S(=O)(=O)c2cccc(S(=O)(=O)N3CC[C@H]4CC[C@@H](C(=O)NC(c5ccccc5)c5ccccc5)N4C(=O)[C@@H](NC(=O)[C@H](C)NC)C3)c2)CC[C@H]2CC[C@@H](C(=O)NC(c3ccccc3)c3ccccc3)N2C1=O` [Compound (I), (5S ,5′S ,8S ,8′S,10aR,10a′R)-3,3′-(1,3-phenylenedisulfonyl)bis(N-benzhydryl-5-((S)-2-(methylamino)propanamido)-6-oxodecahydropyrrolo[1,2-a][1,5]diazocine-8-carboxamide)]?
Answer: PK analysis: plasma exposure versus dose ([1]; 7, 12, 20, 30 mg weekly IV): dose proportional increase in plasma exposure; PK analysis: accumulation after multiple dosing ([1]; weekly IV for 4 weeks): no accumulation after multiple dosing; inhibition of IAPs [2]: inhibits IAPs in vivo and in vitro; clearance of chronic HBV infections (chronic HBV infections): can clear chronic HBV infections in different models; Fibro Test Score Changes from baseline to end of follow-up, Mean(SD) ([3]; 7 mg weekly IV for 4 weeks, N = 3): 0.27 kPa; Fibro Test Score Changes from baseline to end of follow-up, Mean(SD) ([3]; 12 mg weekly IV for 4 weeks, N = 3): −1.80 kPa; Fibro Test Score Changes from baseline to end of follow-up, Mean(SD) ([3]; 20 mg weekly IV for 4 weeks, N = 6): −0.33 kPa; Fibro Test Score Changes from baseline to end of follow-up, Mean(SD) ([3]; 30 mg weekly IV for 4 weeks, N = 2): −4.05 kPa; patients with ALT normalization ([3]; 10/22 patients): 46%; patients with reduction of HBsAg at ≥0.5 log (hepatitis B virus (HBV); 5/26 patients): 19%; patients with reduction of HBsAg at ≥0.2 log (hepatitis B virus (HBV); 12/26 patients): 46%; patients with decline of HBV DNA (hepatitis B virus (HBV); 23 of 26 patients): 89%; patients with prolonged HBsAg reduction (hepatitis B virus (HBV); during post-treatment follow-up, 11/23 patients): 48%; patients with reduction of HBsAg (hepatitis B virus (HBV); week 4, 17 of 26 patients): 65%; Any Drug-Related TEAE (%) [4, 5]: (66.7%); Any Drug-Related TEAE N [4, 5]: 2; SAE (%) [4, 5]: (0%); SAE N [4, 5]: 0; Any Drug-Related TEAE (%) [4, 6]: (33.3%); Any Drug-Related TEAE N [4, 6]: 3; SAE (%) [4, 6]: (0%); SAE N [4, 6]: 0; Any Drug-Related TEAE (%) [4, 7]: (100.0%); Any Drug-Related TEAE N [4, 7]: 6; SAE (%) [4, 7]: (0%); SAE N [4, 7]: 0; patients with grade 2 facial nerve disorder ([4]; 30 mg cohort): 1 patient; time to recovery from grade 2 facial nerve disorder ([4]; 30 mg cohort, 1 patient): ≤ 4 weeks; Any Drug-Related TEAE (%) [4, 8]: (83.3%); Any Drug-Related TEAE N [4, 8]: 5; SAE (%) [4, 8]: (16.7%); SAE N [4, 8]: 1; drug-related adverse event: ALT increase, incidence ([4]; all cohorts 7-30 mg weekly IV): 26%; drug-related adverse event: AST increase, incidence ([4]; all cohorts 7-30 mg weekly IV): 22%; drug-related adverse event: infusion site pain, incidence ([4]; all cohorts 7-30 mg weekly IV): 15%; drug-related adverse event: infusion site reaction, incidence ([4]; all cohorts 7-30 mg weekly IV): 15%; drug-related adverse event: total bile acids increase, incidence ([4]; all cohorts 7-30 mg weekly IV): 15%; patients with grade 3 ALT or AST elevation ([4]; all cohorts 7-30 mg weekly IV): Four; safety and tolerability, overall ([4]; ascending doses from 7 mg to 30 mg): safe and well tolerated; grade 3 ALT or AST elevation, extent ([4]; the four patients with grade 3 elevation): 5-15 × ULN
